Data on 3 compounds can be found in ChEMBL document CHEMBL1132601, “Design, synthesis, and structure-activity relationships of acetylene-based histamine H3 receptor antagonists” (J Med Chem, 1999).

pKi: −log10 of the molar value.

Histamine H3 receptor, sequence (Q9QYN8 whole entry): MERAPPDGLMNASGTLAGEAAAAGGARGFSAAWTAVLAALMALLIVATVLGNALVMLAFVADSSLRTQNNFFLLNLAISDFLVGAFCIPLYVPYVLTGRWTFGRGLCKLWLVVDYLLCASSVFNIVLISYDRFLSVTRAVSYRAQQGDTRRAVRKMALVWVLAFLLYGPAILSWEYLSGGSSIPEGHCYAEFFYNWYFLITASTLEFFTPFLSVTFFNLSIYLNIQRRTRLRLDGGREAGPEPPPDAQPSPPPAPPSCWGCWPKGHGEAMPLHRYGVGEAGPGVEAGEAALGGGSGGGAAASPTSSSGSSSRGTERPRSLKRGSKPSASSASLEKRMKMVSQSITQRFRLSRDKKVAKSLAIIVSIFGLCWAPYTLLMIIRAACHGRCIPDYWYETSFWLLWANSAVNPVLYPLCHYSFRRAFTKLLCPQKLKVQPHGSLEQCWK

The assay addresses Histamine H3 receptor (Rattus norvegicus, UniProt Q9QYN8). The experiment in a line: Binding affinity at histamine H3 receptor in rat cortical membranes by [3H]Nalpha-methylhistamine displacement. The class given is cell membranes.
The term pKi denotes the Ki on a negative log10 scale, so that one unit is a factor of ten. A higher pKi goes with a small Ki. Consider `CCCC#CC1CC1c1c[nH]cn1` (stereo not drawn), for which the pKi was 8.29.
For `CC(C)(C)CCC#C[C@@H]1C[C@H]1c1c[nH]cn1` [CIPRALISANT], the pKi was 9.92. Compared with the last compound, the pKi is 1.63 log units higher.
For `C(#CCCC1CCCC1)CCc1c[nH]cn1`, the pKi is 9.05.
